Data set [1] concerns patients with type I/II hereditary angioedema (HAE). As to conditions: phase 3 study; monthly prophylactic subcutaneous treatment; cited from earlier work.
In another data set the target is Thrombin (Homo sapiens, UniProt P00734). Kind of data set: Related protease inhibition: Thrombin, fluorogenic substrate. Type of data set: biochemical. As to conditions: fluorogenic substrate at Km, 25° C.; H1-H3 = % activity at 40 μM; read-out: IC50 (human thrombin) nM. The protocol: (§1) Human serine protease enzyme Plasma Kallikrein, KLK1, FXa, Plasmin, Thrombin and Trypsin were assayed for enzymatic activity using an appropriate fluorogenic substrate at Km concentration, FXIa at fixed substrate concentration of 100 μM and various concentrations of the test compound.

Data set [2] deals with T1, Human Factor XIIa (hFXIIa) (Homo sapiens, UniProt P00748).
T1 construct: purchased Enzyme Research Laboratories
T1 sequence (P00748 373-615 limits assumed): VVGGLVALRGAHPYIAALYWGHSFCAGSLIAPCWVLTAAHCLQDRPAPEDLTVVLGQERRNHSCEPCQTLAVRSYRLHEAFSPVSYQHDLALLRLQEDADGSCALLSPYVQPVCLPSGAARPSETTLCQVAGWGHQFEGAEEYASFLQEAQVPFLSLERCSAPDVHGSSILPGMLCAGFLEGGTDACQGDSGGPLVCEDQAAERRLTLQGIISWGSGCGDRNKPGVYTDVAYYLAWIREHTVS
T1 sequence (P00748 20-372 partner limits assumed): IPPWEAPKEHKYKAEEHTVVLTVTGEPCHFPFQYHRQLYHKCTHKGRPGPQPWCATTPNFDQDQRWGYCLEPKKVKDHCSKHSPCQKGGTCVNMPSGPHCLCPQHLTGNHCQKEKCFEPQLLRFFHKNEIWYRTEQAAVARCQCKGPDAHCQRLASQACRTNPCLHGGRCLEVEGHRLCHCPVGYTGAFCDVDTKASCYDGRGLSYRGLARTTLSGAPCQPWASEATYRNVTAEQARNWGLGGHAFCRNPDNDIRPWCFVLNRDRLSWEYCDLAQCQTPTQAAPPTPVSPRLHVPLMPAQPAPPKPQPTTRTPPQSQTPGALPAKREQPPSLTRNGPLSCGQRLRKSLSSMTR
Kind of data set: Determination of Human Factor XIIa (hFXIIa) inhibition, fluorogenic substrate IC50 assay. The data set is classed as biochemical. As to conditions: fluorogenic substrate H-DPro-Phe-Arg-AFC at Km, 25° C., read-out: Human FXIIa IC50. The protocol:
Determination of Human Factor XIIa (hFXIIa) inhibition
The Km for the cleavage of the substrate by hFXIIa was determined by standard transformation of the Michaelis-Menten equation, with subsequent inhibition assays performed at substrate Km concentration.

Data set [3] can be described thus: Pharmacokinetics following a single intravenous dose and a single oral dose in rats. Type of data set: in vivo. As to conditions: rat, male Sprague-Dawley rats, single iv dose (nominal 1 mg/kg) and single oral dose (nominal 5 mg/kg) in 10% DMSO/10% Cremophor EL/80% SWFI, plasma by LCMS, Phoenix WinNonlin; for bioavailability: read-out: F % (oral bioavailability); for half-life: route for T½ not stated. As for the experimental part: Pharmacokinetic studies of the compounds in Table 10 were performed to assess the pharmacokinetics following a single intravenous dose and a single oral dose in male Sprague-Dawley rats. Two rats were given a single intravenous dose of 1 ml/kg of a nominal 1 mg/ml (1 mg/kg) composition of test compound in 10% DMSO/10% Cremophor EL/80% SWFI vehicle. Two rats were given a single oral dose of 5 mL/kg of a nominal 1 mg/ml (5 mg/kg) composition of test compound in 10% DMSO/10% Cremophor EL/80% SWFI vehicle.
Following intravenous dosing, blood samples were collected over a period of 12 h. Sample times were 2, 5, 15 and 30 min then 1, 2, 4, 6, and 12 h. Following oral dosing, blood samples were collected over a period of 24 h. Sample times were 5, 15 and 30 min then 1, 2, 4, 6, 8, 12 and 24 h.
Following collection, blood samples were centrifuged and the plasma fraction analysed for concentration of test compound by LCMS. Oral bioavailability and half-life calculations from these studies were obtained using Phoenix WinNonlin (v8.0) and are shown below: […]

The next data set concerns the target FXa (Homo sapiens, UniProt P00742). Kind of data set: Related protease inhibition: FXa, fluorogenic substrate. The data set is classed as biochemical. The conditions noted are these: fluorogenic substrate at Km, 25° C., H1-H3 = % activity at 40 μM; for activity at 40 µM: read-out: IC50 (human FXa) nM. The protocol:
as §1

Results on 4 compounds are retold here after US20260132132A1, “3A,4,5,6-TETRAHYDRO-1 H-PYRAZOLO[3,4-C]PYRIDIN-7(7AH)-ONE DERIVATIVES AS FACTOR XIIA INHIBITORS” (KALVISTA PHARMACEUTICALS LIMITED, priority 2022, published 2026).

Chain of FXa (P00742 235-488 limits assumed): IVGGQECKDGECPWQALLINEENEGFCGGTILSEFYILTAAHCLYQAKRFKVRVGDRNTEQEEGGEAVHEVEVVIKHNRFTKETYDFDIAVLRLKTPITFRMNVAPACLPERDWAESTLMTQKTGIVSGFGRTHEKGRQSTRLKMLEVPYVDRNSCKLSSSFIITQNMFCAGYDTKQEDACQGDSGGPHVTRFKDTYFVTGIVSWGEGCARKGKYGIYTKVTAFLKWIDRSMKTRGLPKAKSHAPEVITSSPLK
Chain of FXa (P00742 41-179 partner limits assumed): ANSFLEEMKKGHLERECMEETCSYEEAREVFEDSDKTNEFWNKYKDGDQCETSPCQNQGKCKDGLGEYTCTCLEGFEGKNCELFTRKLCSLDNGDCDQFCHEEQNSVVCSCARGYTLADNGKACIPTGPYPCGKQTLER

“Garadacimab: "a monoclonal antibody inhibitory against FXIIa"”: the “attacks in patients with type I/II hereditary angioedema (HAE)” value in data set [1] was “reduce attacks”.
Regarding `CN1CCOc2ccc(N3CCc4c(C(=O)N[C@@H](CO)C5CC5)nn(-c5cccc(Cl)c5F)c4C3=O)cc2C1=O` [Example 2049, (R)-1-(3-chloro-2-fluorophenyl)-N-(1-cyclopropyl-2-hydroxyethyl)-6-(4-methyl-5-oxo-2,3,4,5-tetrahydrobenzo[f][1,4]oxazepin-7-yl)-7-oxo-4,5,6,7-tetrahydro-1H-pyrazolo[3,4-c]pyridine-3-carboxamide], the activity at 40 µM on Thrombin was above 80%. Moreover, the IC50 in data set [2] lay in the range of 10 to 100 nM. Besides, in data set [3], the bioavailability was found to be 28% and the half-life stood at 1.42 h. For the same compound, on FXa, the activity at 40 µM was below 20%.
Take `CN1CCOc2ccc(N3CCc4c(C(=O)N[C@@H]5CCOC5)nn(-c5cccc(Cl)c5F)c4C3=O)cc2C1=O` [Example 2048, (R)-1-(3-chloro-2-fluorophenyl)-6-(4-methyl-5-oxo-2,3,4,5-tetrahydrobenzo[f][1,4]oxazepin-7-yl)-7-oxo-N-(tetrahydrofuran-3-yl)-4,5,6,7-tetrahydro-1H-pyrazolo[3,4-c]pyridine-3-carboxamide]: the activity at 40 µM on Thrombin was above 80%; on FXa, 20 to 80%. The concentration for half-maximal inhibition (IC50) in data set [2] lay in the range of 10 to 100 nM. The bioavailability in data set [3] amounted to 57%. In addition, the half-life in data set [3] came to 0.817 h.
For `CN1CCc2ccc(N3CCc4c(C(=O)N[C@H](CO)c5ccccc5)nn(-c5cccc(Cl)c5)c4C3=O)cc2C1` [Example 1024, (S)-1-(3-Chlorophenyl)-N-(2-hydroxy-1-phenylethyl)-6-(2-methyl-1,2,3,4-tetrahydroisoquinolin-7-yl)-7-oxo-4,5,6,7-tetrahydro-1H-pyrazolo[3,4-c]pyridine-3-carboxamide], the IC50 in data set [2] lay within 100 to 300 nM; on FXa it was 1000 to 3000 nM. The bioavailability in data set [3] is 36%. This compound displayed a half-life in data set [3] of 5.47 h.

A word on the IC50: it is the concentration needed to halve the response being measured. The term bioavailability denotes dose-corrected exposure relative to a reference, in per cent. Usually half-life stands for how long it takes for the measured level to halve. Low readings indicate rapid decline, high ones slow decline.
